Source: patent publication EP1513525B1, “USE OF MGLUR5 ANTAGONISTS FOR THE TREATMENT OF GERD” (AstraZeneca AB, priority 2002, dated 2003)

Key:
TLESRs [1] = test: Screening for compounds active against TLESR, standard model (nutrient meal followed by air insufflation at 40 ml/min); format: in vivo, Adult Labrador retrievers
Description: (§1) Adult Labrador retrievers of both genders, trained to stand in a Pavlov sling, are used. Mucosa-to-skin esophagostomies are formed and the dogs are allowed to recover completely before any experiments are done.
(§2) In brief, after fasting for approximately 17 h with free supply of water, a multilumen sleeve/sidehole assembly (Dentsleeve, Adelaide, South Australia) is introduced through the esophagostomy to measure gastric, lower esophageal sphincter (LES) and esophageal pressures. The assembly is perfused with water using a low-compliance manometric perfusion pump (Dentsleeve, Adelaide, South Australia). An air-perfused tube is passed in the oral direction to measure swallows, and an antimony electrode monitored pH, 3 cm above the LES. All signals are amplified and acquired on a personal computer at 10 Hz.
When a baseline measurement free from fasting gastric/LES phase III motor activity has been obtained, placebo (0.9% NaCl) or test compound is administered intravenously (i.v., 0.5 ml/kg) in a foreleg vein. Ten min after i.v. administration, a nutrient meal (10% peptone, 5% D-glucose, 5% Intralipid, pH 3.0) is infused into the stomach through the central lumen of the assembly at 100 ml/min to a final volume of 30 ml/kg. Immediately following the meal, air is insufflated at 40 ml/min. In an alternative model (Barostat model), the infusion of the nutrient meal is followed by air infusion at a rate of 500 ml/min until a intragastric pressure of 10±1 mmHg is obtained. The pressure is then maintained at this level throughout the experiment using the infusion pump for further air infusion or for venting air from the stomach. The experimental time from start of nutrient infusion to end of air insufflation is 45 min. The procedure has been validated as a reliable means of triggering TLESRs.
TLESRs is defined as a decrease in lower esophageal sphincter pressure (with reference to intragastric pressure) at a rate of >1 mmHg/s. The relaxation should not be preceded by a pharyngeal signal ≤2s before its onset in which case the relaxation is classified as swallow-induced. The pressure difference between the LES and the stomach should be less than 2 mmHg, and the duration of the complete relaxation longer than 1 s.
2-Methyl-6-(phenylethynyl)-pyridine (MPEP) was prepared according to the procedure described by K. Sonogashira et al. in Tetrahedron Lett. (1975), 50, 4467-4470. After purification by column chromatography (SiO2), the hydrochloride salt (the hydrochloride salt of 2-methyl-6-(phenylethynyl)-pyridine is also commercially available from e.g. Tocris) was prepared by introducing HCl(g) to an ice-cooled Et2O-solution of the product. The hydrochloride salt of MPEP was tested on adult Labrador retrievers of both genders in accordance with the test model described above.
Inhibition of the number of TLESRs was calculated with regard to the five preceding control experiments for each dog, and the results as set out in Tables 1.1 and 1.2 below were achieved. Table 1.1 - Standard model

TLESRs [2] = test: Screening for compounds active against TLESR, Barostat model (nutrient meal followed by air infusion, intragastric pressure held at 10±1 mmHg); format: in vivo, Adult Labrador retrievers; conditions: inhibition of the number of TLESRs, infusion during 55 min
Description: as §1, §2
Ten min after i.v. administration, a nutrient meal (10% peptone, 5% D-glucose, 5% Intralipid, pH 3.0) is infused into the stomach through the central lumen of the assembly at 100 ml/min to a final volume of 30 ml/kg. Immediately following the meal, air is insufflated at 40 ml/min. In an alternative model (Barostat model), the infusion of the nutrient meal is followed by air infusion at a rate of 500 ml/min until a intragastric pressure of 10±1 mmHg is obtained. […]

SMILES | % INHIBITION ± SEM (N) (TLESRs [1]; inhibition of the number of TLESRs vs five preceding control experiments per dog, dose 1.4 µmol/kg i.v., N=4 dogs) | % INHIBITION ± SEM (N) (TLESRs [1]; inhibition of the number of TLESRs vs five preceding control experiments per dog, dose 4.3 µmol/kg i.v., N=4 dogs) | % INHIBITION ± SEM (N) (TLESRs [1]; inhibition of the number of TLESRs vs five preceding control experiments per dog, dose 8.7 µmol/kg i.v., N=3 dogs) | % INHIBITION ± SEM (N) (TLESRs [1]; inhibition of the number of TLESRs, dose 4 µmol/kg/h, infusion during 60 min, N=4 dogs) | % INHIBITION ± SEM (N) (TLESRs [1]; inhibition of the number of TLESRs, dose 6 µmol/kg/h, infusion during 60 min, N=2 dogs) | % INHIBITION ± SEM (N) (TLESRs [2]; dose 1.1 µmol/kg/h, N=4 dogs) | % INHIBITION ± SEM (N) (TLESRs [2]; dose 2.2 µmol/kg/h, N=2 dogs)
Cc1cccc(C#Cc2ccccc2)n1 [MPEP, 2-Methyl-6-(phenylethynyl)-pyridine] | 30 ± 5 (4) % | 57 ± 8 (4) % | 59 ± 11 (3) % | 32 ± 13 (4) % | 43 ± 3 (2) % |  | 
COCc1cc(C#N)cc(-c2nc(-c3ccc(F)cn3)no2)c1 [3-[3-(5-fluoropyridin-2-yl)-1,2,4-oxadiazol-5-yl]-5-(methoxymethyl)benzonitrile] |  |  |  |  |  | 58 ± 11 (4) % | 83 ± 17 (2) %
